Data set [1] can be described thus: Tmax in Sprague-Dawley rat at 3 mg/kg, po measured for 0.25 to 24 hrs by LC-MS/MS analysis. Conditions: in vivo, time 0.25-24 hrs. It counts as ADME, organism-based.
A short description of data set [2]: MRT (0 to t) in Sprague-Dawley rat at 1 mg/kg, iv measured for 0.25 to 24 hrs by LC-MS/MS analysis. Format: ADME, organism-based. As to conditions: in vivo, time 0.25-24 hrs.
The next data set has as its target T1, Cytochrome P450 2C8 (Homo sapiens, UniProt P10632).
T1 sequence (P10632 whole entry): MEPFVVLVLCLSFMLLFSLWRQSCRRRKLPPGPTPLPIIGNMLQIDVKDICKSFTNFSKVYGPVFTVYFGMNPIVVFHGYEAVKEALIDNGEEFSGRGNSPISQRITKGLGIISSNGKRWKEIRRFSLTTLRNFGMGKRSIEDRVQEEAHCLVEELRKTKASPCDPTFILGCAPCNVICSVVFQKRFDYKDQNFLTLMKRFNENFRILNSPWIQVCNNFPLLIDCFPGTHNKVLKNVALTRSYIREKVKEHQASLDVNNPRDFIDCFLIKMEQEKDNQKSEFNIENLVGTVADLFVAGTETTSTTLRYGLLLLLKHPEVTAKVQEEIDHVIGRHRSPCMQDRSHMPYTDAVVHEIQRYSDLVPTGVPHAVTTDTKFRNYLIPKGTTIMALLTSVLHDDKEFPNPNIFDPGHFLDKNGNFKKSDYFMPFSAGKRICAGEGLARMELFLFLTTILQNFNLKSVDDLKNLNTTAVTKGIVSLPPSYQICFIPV
The data set can be described thus: Inhibition of CYP2C8 (unknown origin). Format: ADME.

Data set [3] is described as follows: Stability of compound assessed as (1S,3s)-3-(6-carbamoyl-1-((R)-2-(2-methoxyphenyl)-2-((tetrahydro-2H-pyran-4-yl)oxy)ethyl)-5-methyl-2,4-dioxo-1,4-dihydrothieno[2,3-d]pyrimidin-3(2H)-y l)-1-methylcyclobutane-1-carboxylic acid metabolite formation by measuring retention time. Format: ADME.
Another data set concerns the target T2, Cytochrome P450 1A2 (Homo sapiens, UniProt P05177).
T2 sequence (P05177 whole entry): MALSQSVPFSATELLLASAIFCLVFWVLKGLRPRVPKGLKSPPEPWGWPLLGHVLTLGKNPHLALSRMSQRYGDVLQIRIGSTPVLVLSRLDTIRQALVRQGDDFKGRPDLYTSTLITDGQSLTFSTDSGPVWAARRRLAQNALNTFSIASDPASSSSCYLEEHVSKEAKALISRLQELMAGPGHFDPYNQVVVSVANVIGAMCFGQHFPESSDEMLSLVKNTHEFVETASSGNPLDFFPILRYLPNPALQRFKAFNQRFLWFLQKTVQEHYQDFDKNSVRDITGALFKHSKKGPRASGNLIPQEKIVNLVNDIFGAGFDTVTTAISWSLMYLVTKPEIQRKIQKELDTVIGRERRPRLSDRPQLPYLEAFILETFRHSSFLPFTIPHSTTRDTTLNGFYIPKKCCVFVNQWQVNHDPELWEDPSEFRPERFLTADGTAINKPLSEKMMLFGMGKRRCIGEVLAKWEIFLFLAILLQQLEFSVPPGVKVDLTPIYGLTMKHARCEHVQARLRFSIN
The data set can be described thus: Inhibition of CYP1A2 (unknown origin). It counts as ADME.

The target of data set [4] is Voltage-gated inwardly rectifying potassium channel KCNH2 (Homo sapiens, UniProt Q12809). The data set can be described thus: Inhibition of hERG. It counts as toxicity.
The nature of data set [5]: Oral bioavailability in Sprague-Dawley rat at 3 mg/kg measured for 0.25 to 24 hrs by LC-MS/MS analysis. It counts as ADME, organism-based. Conditions: in vivo, time 0.25-24 hrs.
Data set [6] in a line: Protein binding in monkey plasma. It counts as ADME, cell-free, Macaca mulatta. As to conditions: rhesus monkey, read-out: PPB (converted).
Data set [7] is described as follows: Intrinsic clearance in rat liver microsomes. It counts as ADME, Microsome. Conditions: read-out: CLH. On the technique in general: Microsomes from liver hold many membrane-bound enzymes, among them those of drug oxidation.

Structures are written as SMILES. Bounds are passed on as bounds.

Sequence of Voltage-gated inwardly rectifying potassium channel KCNH2 (Q12809 whole entry): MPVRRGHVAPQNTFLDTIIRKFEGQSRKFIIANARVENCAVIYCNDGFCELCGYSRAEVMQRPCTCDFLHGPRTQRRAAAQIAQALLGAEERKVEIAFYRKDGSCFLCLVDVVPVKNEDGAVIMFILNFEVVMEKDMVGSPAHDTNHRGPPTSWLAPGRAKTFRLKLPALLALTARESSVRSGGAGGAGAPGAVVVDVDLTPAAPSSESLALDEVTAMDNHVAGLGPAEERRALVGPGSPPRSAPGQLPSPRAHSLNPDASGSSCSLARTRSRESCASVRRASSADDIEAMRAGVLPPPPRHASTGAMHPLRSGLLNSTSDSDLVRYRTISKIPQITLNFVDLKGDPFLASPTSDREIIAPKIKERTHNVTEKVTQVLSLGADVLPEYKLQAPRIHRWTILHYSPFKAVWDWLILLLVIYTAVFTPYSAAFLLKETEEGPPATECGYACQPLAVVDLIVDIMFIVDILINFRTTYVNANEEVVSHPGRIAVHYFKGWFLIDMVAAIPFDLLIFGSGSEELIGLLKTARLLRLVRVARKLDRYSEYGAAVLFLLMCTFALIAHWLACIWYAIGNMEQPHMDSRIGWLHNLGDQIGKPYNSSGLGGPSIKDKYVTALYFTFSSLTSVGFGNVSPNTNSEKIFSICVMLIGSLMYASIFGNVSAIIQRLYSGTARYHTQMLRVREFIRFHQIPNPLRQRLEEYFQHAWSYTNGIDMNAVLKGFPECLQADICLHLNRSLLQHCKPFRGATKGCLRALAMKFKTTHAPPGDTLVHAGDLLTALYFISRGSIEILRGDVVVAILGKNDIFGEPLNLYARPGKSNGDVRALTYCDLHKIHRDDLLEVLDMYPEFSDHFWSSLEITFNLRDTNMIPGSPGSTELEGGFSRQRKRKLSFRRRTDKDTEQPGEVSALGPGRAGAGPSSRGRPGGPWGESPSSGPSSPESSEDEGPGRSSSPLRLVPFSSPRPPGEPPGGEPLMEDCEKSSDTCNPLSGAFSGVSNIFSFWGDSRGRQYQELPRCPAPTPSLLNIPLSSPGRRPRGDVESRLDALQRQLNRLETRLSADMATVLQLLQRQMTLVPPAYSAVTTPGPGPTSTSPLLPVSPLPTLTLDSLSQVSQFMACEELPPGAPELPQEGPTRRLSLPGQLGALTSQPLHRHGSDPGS

Turning to `COc1ccccc1[C@H](Cn1c(=O)n([C@H]2C[C@@](C)(C(=O)O)C2)c(=O)c2c(C)c(-c3ncco3)sc21)OC1CCOCC1`, the time of peak concentration (Tmax) in [1] came to 24 min. The molecule also showed a mean residence time (MRT last) in [2] of 18 min. Besides, the IC50 (against Cytochrome P450 2C8; at Cytochrome P450 1A2; in data set [4]) was > 30 µM in each case. Further, in [3], the Retention_time came to 7.64 min. In data set [5], the bioavailability was 22%. In addition, the fraction unbound in data set [6] is 0.043. Moreover, the CLint scaled in data set [7] is < 17.3 mL/min/kg.

As usually defined, the Tmax is the time at which the peak concentration occurs. As usually defined, the MRT last is the average time that molecules of a dose stay in the body. As usually defined, the IC50 is the midpoint of a concentration-inhibition curve. The term bioavailability denotes the share of a dose that reaches the circulation, judged against a reference dose that is usually intravenous.

Source of the values: ChEMBL document CHEMBL6134873, “Identification of Novel Cyclobutane-Based Derivatives as Potent Acetyl-CoA Carboxylase Allosteric Inhibitors for Nonalcoholic Steatohepatitis Drug Discovery” (J Med Chem, 2025).
